Experimental data published in US10798941B2, “Microbiocidal oxadiazole derivatives” (SYNGENTA PARTICIPATIONS AG, priority 2016, dated 2020).
Read-outs that look alike come from different tables or passages of the source.

Legend:
[1] = system: Glomerella Lagenarium (Colletotrichum Lagenarium); test: Glomerella lagenarium (Colletotrichum lagenarium) liquid culture / cucumber / preventative (anthracnose); format: cell-based; details: Colletotrichum orbiculare, read-out: disease control
Experimental: Mycelia fragments or conidia suspensions of a fungus prepared either freshly from liquid cultures of the fungus or from cryogenic storage, are directly mixed into nutrient broth. DMSO solutions of the test compound (max. 10 mg/ml) are diluted with 0.025% Tween20 by a factor of 50 and 10 μl of this solution is pipetted into a microtiter plate (96-well format). The nutrient broth containing the fungal spores/mycelia fragments is then added to give an end concentration of the tested compound. The test plates are incubated in the dark at 24° C. and 96% relative humidity. The inhibition of fungal growth is determined photometrically after 2 to 7 days, depending on the pathosystem, and percent antifungal activity relative to the untreated check is calculated.
Conidia of the fungus from cryogenic storage are directly mixed into nutrient broth (PDB—potato dextrose broth). After placing a (DMSO) solution of test compound into a microtiter plate (96-well format), the nutrient broth containing the fungal spores is added.
The following compounds at 20 ppm in the applied formulation give at least 80% disease control in this test when compared to untreated control under the same conditions, which show extensive disease development.

[2] = system: Puccinia recondita f. Sp. Tritici; test: Puccinia recondita f. sp. tritici / wheat / leaf disc preventative (brown rust); format: in vivo; details: foliar, 168 h, read-out: disease control
Experimental: Leaf disks or leaf segments of various plant species are cut from plants grown in a greenhouse. The cut leaf disks or segments are placed in multiwell plates (24-well format) onto water agar. The leaf disks are sprayed with a test solution before (preventative) or after (curative) inoculation. Compounds to be tested are prepared as DMSO solutions (max. 10 mg/ml) which are diluted to the appropriate concentration with 0.025% Tween20 just before spraying. The inoculated leaf disks or segments are incubated under defined conditions (temperature, relative humidity, light, etc.) according to the respective test system. A single evaluation of disease level is carried out 3 to 14 days after inoculation, depending on the pathosystem. Percent disease control relative to the untreated check leaf disks or segments is then calculated.
Wheat leaf segments cv. Kanzler were placed on agar in multiwell plates (24-well format) and sprayed with the formulated test compound diluted in water. The leaf disks were inoculated with a spore suspension of the fungus 1 day after application. The inoculated leaf segments were incubated at 19° C. and 75% relative humidity (rh) under a light regime of 12 hours light/12 hours darkness in a climate cabinet and the activity of a compound was assessed as percent disease control compared to untreated when an appropriate level of disease damage appears in untreated check leaf segments (7 to 9 days after application).
The following compounds at 200 ppm in the applied formulation give at least 80% disease control in this test when compared to untreated control leaf disks under the same conditions, which show extensive disease development.

[3] = 20 ppm in the applied formulation, liquid culture in PDB, 24° C., inhibition of growth measured photometrically 3 to 4 days after application, vs untreated
[4] = 200 ppm in the applied formulation, wheat leaf segments cv. Kanzler, preventative, inoculated 1 day after application, assessed 7 to 9 days after application, vs untreated

Structure (SMILES)	inhibition of growth at 20 ppm [1, 3]	pest or weed control at 200 ppm [2, 4]	inhibition of growth at 20 ppm [1]	pest or weed control at 200 ppm [2]
COc1cc(Cl)cnc1OCc1cn(Cc2ccc(-c3noc(C(F)(F)F)n3)cc2)nn1 [Compound 1.29, 3-[4-[[4-[(5-chloro-3-methoxy-2-pyridyl)oxymethyl]triazol-1-yl]methyl]phenyl]-5-(trifluoromethyl)-1,2,4-oxadiazole]	≥ 80%	≥ 80%	–	–
FC(F)(F)c1nc(-c2ccc(Cn3ccnc3-c3ccccc3)cc2)no1 [Compound 1.47, 3-[4-[(2-phenylimidazol-1-yl)methyl]phenyl]-5-(trifluoromethyl)-1,2,4-oxadiazole]	≥ 80%	≥ 80%	–	–
FC(F)(F)c1nc(-c2ccc(Cn3c(C(F)(F)F)nc4ccccc43)cc2)no1 [Compound 1.48, 5-(trifluoromethyl)-3-[4-[[2-(trifluoromethyl)benzimidazol-1-yl]methyl]phenyl]-1,2,4-oxadiazole]	≥ 80%	≥ 80%	–	–
CC(=O)c1cn(Cc2ccc(-c3noc(C(F)(F)F)n3)cc2)c2ccccc12 [Compound 1.50, 1-[1-[[4-[5-(trifluoromethyl)-1,2,4-oxadiazol-3-yl]phenyl]methyl]indol-3-yl]ethanone]	–	–	≥ 80%	≥ 80%
Cc1ccc2c(ccn2Cc2ccc(-c3noc(C(F)(F)F)n3)cc2)c1 [Compound 1.52, 3-[4-[(5-methylindol-1-yl)methyl]phenyl]-5-(trifluoromethyl)-1,2,4-oxadiazole]	≥ 80%	≥ 80%	–	–
Cc1nccn1Cc1ccc(-c2noc(C(F)(F)F)n2)cc1 [Compound 1.53, 3-[4-[(2-methylimidazol-1-yl)methyl]phenyl]-5-(trifluoromethyl)-1,2,4-oxadiazole]	–	≥ 80%	–	–
COc1ccc2c(c1)c(C=O)cn2Cc1ccc(-c2noc(C(F)(F)F)n2)cc1 [Compound 1.57, 5-methoxy-1-[[4-[5-(trifluoromethyl)-1,2,4-oxadiazol-3-yl]phenyl]methyl]indole-3-carbaldehyde]	≥ 80%	≥ 80%	–	–
N#CCc1nc2ccccc2n1Cc1ccc(-c2noc(C(F)(F)F)n2)cc1 [Compound 1.58, 2-[1-[[4-[5-(trifluoromethyl)-1,2,4-oxadiazol-3-yl]phenyl]methyl]benzimidazol-2-yl]acetonitrile]	≥ 80%	≥ 80%	–	–
N#Cc1ccn(Cc2ccc(-c3noc(C(F)(F)F)n3)cc2)c1 [Compound 1.60, 1-[[4-[5-(trifluoromethyl)-1,2,4-oxadiazol-3-yl]phenyl]methyl]pyrrole-3-carbonitrile]	≥ 80%	≥ 80%	–	–
CCc1nc2ccccc2n1Cc1ccc(-c2noc(C(F)(F)F)n2)cc1 [Compound 1.63, 3-[4-[(2-ethylbenzimidazol-1-yl)methyl]phenyl]-5-(trifluoromethyl)-1,2,4-oxadiazole]	≥ 80%	≥ 80%	–	–
Fc1ccc(-c2nccn2Cc2ccc(-c3noc(C(F)(F)F)n3)cc2)cc1 [Compound 1.65, 3-[4-[[2-(4-fluorophenyl)imidazol-1-yl)methyl]phenyl]-5-(trifluoromethyl)-1,2,4-oxadiazole]	≥ 80%	≥ 80%	–	–
FC(F)(F)c1nc(-c2ccc(Cn3c(-c4ccncc4)nc4ccccc43)cc2)no1 [Compound 1.73, 3-[4-[[2-(4-pyridyl)benzimidazol-1-yl]methyl]phenyl]-5-(trifluoromethyl)-1,2,4-oxadiazole]	≥ 80%	≥ 80%	–	–
O=C1CCc2cn(Cc3ccc(-c4noc(C(F)(F)F)n4)cc3)cc21 [Compound 1.74, 2-[[4-[5-(trifluoromethyl)-1,2,4-oxadiazol-3-yl]phenyl]methyl]-5,6-dihydrocyclopenta[c]pyrrol-4-one]	≥ 80%	≥ 80%	–	–
COc1ccc2c(ccn2Cc2ccc(-c3noc(C(F)(F)F)n3)cc2)c1 [Compound 1.75, 3-[4-[(5-methoxyindol-1-yl)methyl]phenyl]-5-(trifluoromethyl)-1,2,4-oxadiazole]	≥ 80%	≥ 80%	–	–
FC(F)(F)c1nc(-c2ccc(Cn3cnc4c(Cl)cccc43)cc2)no1 [Compound 1.94, 3-[4-[(4-chlorobenzimidazol-1-yl)methyl]phenyl]-5-(trifluoromethyl)-1,2,4-oxadiazole]	≥ 80%	≥ 80%	–	–
FC(F)(F)c1nc(-c2ccc(Cn3cnc4cccc(Cl)c43)cc2)no1 [Compound 1.95, 3-[4-[(7-chlorobenzimidazol-1-yl)methyl]phenyl]-5-(trifluoromethyl)-1,2,4-oxadiazole]	≥ 80%	≥ 80%	–	–
Cc1cn(Cc2ccc(-c3noc(C(F)(F)F)n3)cc2Cl)c(C)n1 [Compound 1.105, 3-[3-chloro-4-[(2,4-dimethylimidazol-1-yl)methyl]phenyl]-5-(trifluoromethyl)-1,2,4-oxadiazole]	–	≥ 80%	–	–
FC(F)(F)c1nc(-c2ccc(Cn3cnc(Br)c3)c(Cl)c2)no1 [Compound 1.107, 3-[4-[(4-bromoimidazol-1-yl)methyl]-3-chloro-phenyl]-5-(trifluoromethyl)-1,2,4-oxadiazole]	≥ 80%	≥ 80%	–	–
COC(=O)c1ncn(Cc2ccc(-c3noc(C(F)(F)F)n3)cc2Cl)n1 [Compound 1.108, methyl 1-[[2-chloro-4-[5-(trifluoromethyl)-1,2,4-oxadiazol-3-yl]phenyl]methyl]-1,2,4-triazole-3-carboxylate]	≥ 80%	≥ 80%	–	–
Fc1cc(-c2noc(C(F)(F)F)n2)ccc1Cn1cccc2ccnc1-2 [Compound 1.125, 3-[3-fluoro-4-(pyrrolo[2,3-b]pyridin-7-ylmethyl)phenyl]-5-(trifluoromethyl)-1,2,4-oxadiazole]	–	≥ 80%	–	–
Cc1nccn1Cc1ccc(-c2noc(C(F)(F)F)n2)cn1 [Compound 1.139, 3-[6-[(2-methylimidazol-1-yl)methyl]-3-pyridyl]-5-(trifluoromethyl)-1,2,4-oxadiazole]	–	≥ 80%	–	–
CCOC(=O)c1c(-c2ccccc2)ncn1Cc1ccc(-c2noc(C(F)(F)F)n2)cc1 [Compound 1.189, ethyl 5-phenyl-3-[[4-[5-(trifluoromethyl)-1,2,4-oxadiazol-3-yl]phenyl]methyl]imidazole-4-carboxylate]	≥ 80%	–	–	–
Cc1nc2cc(C(F)(F)F)ccc2n1Cc1ccc(-c2noc(C(F)(F)F)n2)cc1 [Compound 1.191, 3-[4-[[2-methyl-5-(trifluoromethyl)benzimidazol-1-yl]methyl]phenyl]-5-(trifluoromethyl)-1,2,4-oxadiazole]	≥ 80%	–	–	–
Cc1cc(C)n(Cc2ccc(-c3noc(C(F)(F)F)n3)nc2)n1 [Compound 1.284, 3-[5-[(3,5-dimethylpyrazol-1-yl)methyl]-2-pyridyl]-5-(trifluoromethyl)-1,2,4-oxadiazole]	≥ 80%	–	–	–
FC(F)(F)c1nc(-c2ccc(CN3CCOCC3)cc2)no1 [Compound 1.301, 4-[[4-[5-(trifluoromethyl)-1,2,4-oxadiazol-3-yl]phenyl]methyl]morpholine]	–	≥ 80%	–	–
C[C@@H]1CN(Cc2ccc(-c3noc(C(F)(F)F)n3)cc2)C[C@H](C)O1 [Compound 1.307, (2R,6S)-2,6-dimethyl-4-[[4-[5-(trifluoromethyl)-1,2,4-oxadiazol-3-yl]phenyl]methyl]morpholine]	≥ 80%	–	–	–
C[C@@H]1CN(Cc2ccc(-c3noc(C(F)(F)F)n3)cc2)C[C@@H](C)O1 [Compound 1.308, (2R,6R)-2,6-dimethyl-4-[[4-[5-(trifluoromethyl)-1,2,4-oxadiazol-3-yl]phenyl]methyl]morpholine]	–	≥ 80%	–	–
Cc1cc(C)n(CCc2ccc(-c3noc(C(F)(F)F)n3)cc2)n1 [Compound 1.309, 3-[4-[2-(3,5-dimethylpyrazol-1-yl)ethyl]phenyl]-5-(trifluoromethyl)-1,2,4-oxadiazole]	≥ 80%	–	–	–
